Source: patent US20230059022A1, “PRUSSIAN BLUE ZnO CARBON NANOTUBE COMPOSITE FOR MEASURING HYDROGEN PEROXIDE IN CANCER CELLS” (Middle Tennessee State University, priority 2020, published 2023)
Several values for one entry are separate records, joined by “and”; a condition that tells them apart may be missing. Identical values can stand only once.

Assays:
Type in all cases: cell-based
BT20 cancer cells [1] = experiment: SAM CA (chronoamperometry with standard addition) of hydrogen peroxide release from BT20 cells
Description: (§1) BT20 and 4T1 cells were purchased from American Type Culture Collection (ATCC). Both cell lines were maintained in RPMI-1640 medium (Sigma-Aldrich) with 10% Fetal Bovine Serum (FBS) (Gibco) at 37° C. with 5% CO2. The medium was renewed every two days. Well-grown BT20 cells in logarithmic phase were digested by 0.25% (w/v) Trypsin (Fisher Scientific) from the original culture flask and mixed well before being seeded on a 96-well cell culture plate (Denville Scientific) with a density of 5×10^4 cells/mL and incubated with the same full medium at 37° C. with 5% CO2 for 24 h. Cells were then treated with 100 μL of 50 μM doxonibicin (Dox) (Sigma-Aldrich). […]
(§2) Electrochemical activity of the PB/ZnO/COOH-MWNTs was studied using cyclic voltammetry (CV) and chronoamperometry (CA) using AfterMath™ software ver 1.2.5658 and a WaveNano™ potentiostat (Pine Research Instrument Co., Raleigh, N.C., USA). […] The concentrations of hydrogen peroxide in BT20 cancer cells were measured chronoamperometrically, employing the standard addition method (CA SAM). Samples were measured by standard additions of hydrogen peroxide in increasing order to create the calibration curve needed to determine the unknown hydrogen peroxide concentration in the cancer cells. BT20 and 4T1 cancer cells were cultured and the concentration of hydrogen peroxide in the cancer cells analyzed using this sensor. […]

BT20 cancer cells [2] = experiment: ELISA (Amplex Red hydrogen peroxide release assay) of BT20 cells; settings: single replicate wells
Description: BT20 and 4T1 cells were purchased from American Type Culture Collection (ATCC). Both cell lines were maintained in RPMI-1640 medium (Sigma-Aldrich) with 10% Fetal Bovine Serum (FBS) (Gibco) at 37° C. with 5% CO2. The medium was renewed every two days. Well-grown BT20 cells in logarithmic phase were digested by 0.25% (w/v) Trypsin (Fisher Scientific) from the original culture flask and mixed well before being seeded on a 96-well cell culture plate (Denville Scientific) with a density of 5×10^4 cells/mL and incubated with the same full medium at 37° C. with 5% CO2 for 24 h. Cells were then treated with 100 μL of 50 μM doxonibicin (Dox) (Sigma-Aldrich). Cells treated with 100 μL of vehicle (RPMI-1640 medium) only served as a control. The Dox group and control group each had eight replicate wells. After 24 h of incubation, 50 μL of the medium was collected from each well and proceeded for hydrogen peroxide determination.
The hydrogen peroxide release assay was carried on using Amplex™ Red Hydrogen Peroxide/Peroxidase Assay Kit (Invitrogen) according to the instruction. […] After incubation at room temperature in the dark for 30 min, the absorbance of each well at 560 nm of was measured with a CLARIOstar™ microplate reader (BMG Labtech). The concentration of hydrogen peroxide in the sample was calculated according to the standard curve. […]

4T1 cancer cells [3] = experiment: SAM CA (chronoamperometry with standard addition) of hydrogen peroxide release from 4T1 cells
Description: as §1, §2

4T1 cancer cells [4] = experiment: ELISA (Amplex Red hydrogen peroxide release assay) of 4T1 cells

In the case of `COc1cccc2c1C(=O)c1c(O)c3c(c(O)c1C2=O)C[C@@](O)(C(=O)CO)C[C@@H]3O[C@H]1C[C@H](N)[C@H](O)[C@H](C)O1` [Dox, doxonibicin], the “hydrogen peroxide concentration in Dox-treated BT20 cancer cells (mean)” value (BT20 cancer cells [1]; 48 h Dox-treated BT20 cells, CA SAM, n=6) is reported as 16.0 ± 1.4 µM, the “H2O2 from Dox-treated BT20 cancer cells, SAM CA” value (BT20 cancer cells [1]; BT20 cells, Dox treated, single replicates, SAM CA) is reported as 15.1 μM and 15.88 μM (2×) and 17.47 μM (2×) and 14.42 μM and the “H2O2 from Dox-treated BT20 cancer cells, ELISA results” value (BT20 cancer cells [2]) is reported as 5.0152 μM and 5.3182 μM (2×) and 5.6212 μM (2×) and 6.0758 μM and 6.9848 μM and 4.4091 μM. The “H2O2 from Dox treated 4T1 cancer cells, SAM CA” value (4T1 cancer cells [3]; 4T1 cells, Dox treated, single replicates, SAM CA) was 14 µM and 15.6 µM and 16 µM, the “concentration of hydrogen peroxide released in Dox-treated 4T1 cancer cells (mean)” value (4T1 cancer cells [3]; Dox-treated 4T1 cells, CA SAM, n=3, p=0.0182 vs untreated) was 15.2 µM and the “H2O2 from Dox treated 4T1 cancer cells, ELISA results” value (4T1 cancer cells [4]; Dox treated, single replicate wells) was 1.9605 µM and 2.0921 µM and 2.4868 µM and 2.75 µM and 2.8816 µM and 2.6184 µM and 3.0132 µM and 1.8289 µM. For the same compound, the “difference in hydrogen peroxide between Dox-treated and untreated 4T1 cells by ELISA” value (4T1 cancer cells [4]; p=0.8932) was “no statistical difference”.
